Experimental findings from patent US12296006B2, “Anti-LY6H antibodies and antibody drug conjugates” (Bluefin BioMedicine, Inc., priority 2017, dated 2025) are described below.

A word on the pIC50: it is the negative decadic logarithm of the IC50, by convention in mol/L.

Molecules are shown by their SMILES. pIC50: −log10 of the molar value. Like-named read-outs stand apart in the source and are kept apart here.

The assay concerns DMS79 cells. Put plainly: In vitro growth inhibition and isobologram analysis (CellTiter Glo): DMS79. The assay is classed as cell-based, human. As to conditions: 5 days, read-out: IC50 (growth), DMS79, alone. The procedure:
SCLC cells were seeded onto 96 well plates at 3000-5,000 cells/well on the day of treatment. To distinguish synergy from additivity of the combination of LY6H-PBD with Olaparib (selleckchem, Cat #S1060), etoposide (Cell Signaling Technology, Cat #2200S) or cisplatin (Sigma, Cat #P4394), for each combination, a specific isobologram was constructed. […] Concentrations ranging from 0.0001-10 ug/ml were used for 12G7-PBD, from 0.0001 to 100 uM for olaparib, cisplatin, and etoposide. Cell viability was measured 5 days later by CellTiter Glo® Luminescent Cell viability Assay™ (Promega, Madison, WI) according to manufacturer's instructions. Each IC50 was graphically derived from the growth curve graphed by Prism™ showing percent survival vs log drug concentrations.
The 50% growth-inhibitory activity of the drug combinations was measured after 5 days of treatment. The line of additivity for the isobologram was constructed by interpolating the two points corresponding to the IC50 of the two drugs alone. Graphically, synergy, additivity, and antagonism are indicated by a point plotted below, on, or above the line of additivity, respectively.
Background: ATP-based viability assays read luminescence as a measure of living cells.

Turning to `O=C(c1cc(Cc2n[nH]c(=O)c3ccccc23)ccc1F)N1CCN(C(=O)C2CC2)CC1` [olaparib], the pIC50 (Homo sapiens, DMS-79, 120 h) was 5.39. As for `N.N.[Cl][Pt][Cl]` [cisplatin], the pIC50 is 6.51. For `COc1cc([C@@H]2c3cc4c(cc3[C@@H](O[C@@H]3O[C@@H]5CO[C@@H](C)O[C@H]5[C@H](O)[C@H]3O)[C@H]3COC(=O)[C@H]23)OCO4)cc(OC)c1O` [etoposide], under “Homo sapiens, DMS-79, 120 h”, the pIC50 is 6.54.
